In the NIST ThermoML archive (doi:10.1016/j.fluid.2006.07.007):
± gives the expanded uncertainty stated by the source.

Conditions: Liquid, Ebulliometric method (Recirculating still)

CCO [ethanol]
Conditions	vapor or sublimation pressure [kPa]
292.33 K	5.593 ± 0.048
303.83 K	10.86 ± 0.06
311.14 K	16.15 ± 0.091
317.9 K	22.84 ± 0.12
323.09 K	29.41 ± 0.15
326.8 K	35.11 ± 0.18
330.56 K	41.76 ± 0.21
333.94 K	48.61 ± 0.24
337.18 K	56.06 ± 0.27
339.97 K	63.2 ± 0.3
342.3 K	69.73 ± 0.31
